The test system of one series is P388 leukemia cells. Briefly: Antitumor effects against intraperitoneally implanted P388 leukemia in mice (increase in life span, survival, body weight). As to conditions: for dose ILS30: dose of 5'-DFUR or 5-FU giving ILS30; for dose ILS30 / dose ILSmax: GMP 100 mg/kg/day in the combinations, unit not given in Table 4; for dose ILSmax: dose of 5'-DFUR or 5-FU giving ILSmax. The protocol:
BDF1 male mice weighing 21 to 23 g were used as experimental animals. P388 leukemia cells were implanted intraperitoneally into the mice. Seven days after the implantation, ascites were collected and diluted with saline to prepare the suspension containing 10^6 P388 leukemia cells in 0.05 ml. The mice were intraperitoneally implanted on day 0 with 10^6 P388 cells. Each group contained 6 mice. 5'-DFUR and GMP were dissolved in saline, alone or combined with each other. The test compounds were administered intraperitoneally from day 1 to day 5. The antitumor effects were evaluated by the increase in life span over control (ILS) calculated by the following formula: [formula] T: Mean survival time (days) in the test drug groups C: Mean survival time (days) in the control group administered intraperitoneally with saline alone
The safety of the drug was evaluated by the therapeutic ratio; the dose ILSmax / the dose ILS30.
In a manner analogous to that described in (1) above except that 5'-DFCR was used instead of 5'-DFUR, the antitumor effects thereof was tested as a referential example.

A further series can be described thus: Acute toxicity. Format: in vivo, male ICR mice. Here is the method:
Groups of 5 weeks old male ICR mice were treated intraperitoneally with 5'-DFUR and GMP at the dosage given in the- following Table 6. Each mice group contained 5 mice. Two weeks after, the number of died mice were counted.

Setting [1] is: 5'-DFCR 28 mg/kg/day, without GMP.
Setting [2] is: 5'-DFCR 55 mg/kg/day, without GMP.
[3] abbreviates: 5'-DFCR 110 mg/kg/day, without GMP.
Setting [4] is: 5'-DFCR 220 mg/kg/day, without GMP.

The structures appear in SMILES notation.

Usually T/C stands for the result in the treated group divided by that in the control group, in per cent. For the compound `C[C@H]1O[C@@H](n2cc(F)c(N)nc2=O)[C@H](O)[C@@H]1O` [5'-DFCR], the “Survival days (mean±SD)” value in the series with P388 leukemia cells (setting [1]) came to 10.7 ± 1.5 days; in the series on P388 leukemia cells (setting [2]), 10.0 ± 1.7 days; with P388 leukemia cells (setting [3]), 10.3 ± 0.5 days; with P388 leukemia cells (setting [4]), 12.0 ± 1.7 days. Besides, the T/C in the series on P388 leukemia cells (setting [1]) was determined as 111%; in the series with P388 leukemia cells (setting [2]), 104%; in the series with P388 leukemia cells (setting [3]) it was 107%; in the series on P388 leukemia cells (setting [4]), 125%.

For `C[C@H]1O[C@@H](n2cc(F)c(=O)[nH]c2=O)[C@H](O)[C@@H]1O` [5'-DFUR, 5'-deoxy-5-fluorouri-dine], the “Survival days (mean±SD)” value with P388 leukemia cells (5'-DFUR 250 mg/kg/day) turned out to be 13.3 ± 0.8 days. This compound also showed a T/C in the series with P388 leukemia cells (5'-DFUR 250 mg/kg/day) of 139%. In addition, the ILS in the series on P388 leukemia cells (5'-DFUR alone 2 mg/kg/day i.p., day 1 to day 5) was 0%; in the series with P388 leukemia cells (5'-DFUR alone 4 mg/kg/day i.p., day 1 to day 5), 1%; in the series on P388 leukemia cells (5'-DFUR alone 8 mg/kg/day i.p., day 1 to day 5) it was 8%; in the series with P388 leukemia cells (5'-DFUR alone 16 mg/kg/day i.p., day 1 to day 5), 15%; in the series on P388 leukemia cells (5'-DFUR alone 32 mg/kg/day i.p., day 1 to day 5) it was 21%; with P388 leukemia cells (5'-DFUR alone 63 mg/kg/day i.p., day 1 to day 5), 21%. Further, the ILS in the series on P388 leukemia cells (5'-DFUR alone 125 mg/kg/day i.p., day 1 to day 5) is listed as 31%; in the series with P388 leukemia cells (5'-DFUR alone 250 mg/kg/day i.p., day 1 to day 5), 48%; in the series on P388 leukemia cells (5'-DFUR alone 500 mg/kg/day i.p., day 1 to day 5) it was 24%. In addition, the “dose ILS30” value with P388 leukemia cells is given as 125. Further, in the series on P388 leukemia cells, the “dose ILSmax” value stood at 250. Besides, the ILSmax with P388 leukemia cells (dose series of 5'-DFUR i.p., GMP at 100 mg/kg/day in the combination group) was 48%. In addition, in the series “Acute toxicity” (mouse, in vivo), the “number of died mice/number of tested mice” value is given as 0/5.

Turning to `O=c1[nH]cc(F)c(=O)[nH]1` [5-FU, 5-fluorouracil], in the series with P388 leukemia cells, the “dose ILS30” value came out at 0.75 and the “dose ILSmax” value turned out to be 20.

`Nc1ncnc2c1ncn2[C@@H]1O[C@H](COP(=O)(O)O)[C@@H](O)[C@H]1O` [AMP, adenosine-5'-monophosphate]: in the series with P388 leukemia cells (nucleotide alone 100 mg/kg/day), the “Survival days (mean±SD)” value was 9.5 ± 1.9 days and the T/C turned out to be 99%.

For `Nc1nc2c(ncn2[C@@H]2O[C@H](COP(=O)(O)O)[C@@H](O)[C@H]2O)c(=O)[nH]1` [GMP, guanosine-5'-monophosphate], the ILS in the series on P388 leukemia cells (GMP alone 100 mg/kg/day i.p. (5'-DFUR 0)) is on record as -3%; in the series on P388 leukemia cells (GMP alone 300 mg/kg/day i.p. (5'-DFUR 0)), 5%; with P388 leukemia cells (GMP alone 500 mg/kg/day i.p. (5'-DFUR 0)), 8%; in the series with P388 leukemia cells (GMP alone 1000 mg/kg/day i.p. (5'-DFUR 0)), 1%. Also, the “influence on ILS” value in the series with P388 leukemia cells (GMP alone (Table 3)) is “no influence observed”. Also, the “Survival days (mean±SD)” value with P388 leukemia cells (nucleotide alone 100 mg/kg/day) stood at 8.8 ± 0.8 days. The T/C in the series with P388 leukemia cells (nucleotide alone 100 mg/kg/day) turned out to be 92%. The “number of died mice/number of tested mice” value in the series “Acute toxicity” (GMP 2000 mg/kg, 5'-DFUR 0, intraperitoneally, counted two weeks after) was 0/5; in “Acute toxicity” (GMP 4000 mg/kg, 5'-DFUR 0, intraperitoneally, counted two weeks after), 1/5.

These data come from EP0189755A1, “Pharmaceutical composition” (F. HOFFMANN-LA ROCHE AG, priority 1985, dated 1986).
